Experimental findings from article PMC4992173, “Divergent synthesis and identification of the cellular targets of deoxyelephantopins” (Nature Communications, 2016) are described below.

A word on the IC50: it is the concentration that gives 50% inhibition.

This test concerns the target T1, wt PPARG (Homo sapiens, UniProt P37231).
T1 construct: host or cells: 293T
Nature of the test: Gel-based competitive IC50 determination in 293T lysates: WT PPARγ. Format: binding. To be noted: wt PPARG expressed in 293T cells, lysate, 1 h, then 10 μM 24c-Cy3. The text has this:
Finally, we sought to understand the molecular basis for PPARγ binding by the synthetic analogues of deoxyelephantopin through identification of the precise covalently modified amino acid site. There is literature precedent for oxidized fatty acids containing an α,β-unsaturated ketone to form a covalent bond with a cysteine in the ligand-binding site of PPARγ[53]. More recently, synthetic ligands binding reversibly to a distinct site were identified. […] Bearing in mind that the structurally simplified, and thus less prone to MS/MS fragmentation, probe 23c binds PPARγ as efficiently as 24c (Supplementary Fig. 13), we treated the recombinant nuclear receptor with the former compound, digested the protein and analysed the resulting peptides by LC–MS/MS. […]
Supplementary figure 21: Top: Fluorescence gels corresponding to the IC50 curves presented in the main text Figure 8b. γ fluorescence signal in percentage after 19a treatment. […]
Biological materials. […] Protein concentration was determined using the Bradford assay (Bio-Rad).
Cell culture and preparation of lysates. […] Cells were lysed by sonication to form cell lysates and protein concentration was determined using the Bradford […]

Each structure is given as a SMILES string.

T1 sequence (P37231 whole entry): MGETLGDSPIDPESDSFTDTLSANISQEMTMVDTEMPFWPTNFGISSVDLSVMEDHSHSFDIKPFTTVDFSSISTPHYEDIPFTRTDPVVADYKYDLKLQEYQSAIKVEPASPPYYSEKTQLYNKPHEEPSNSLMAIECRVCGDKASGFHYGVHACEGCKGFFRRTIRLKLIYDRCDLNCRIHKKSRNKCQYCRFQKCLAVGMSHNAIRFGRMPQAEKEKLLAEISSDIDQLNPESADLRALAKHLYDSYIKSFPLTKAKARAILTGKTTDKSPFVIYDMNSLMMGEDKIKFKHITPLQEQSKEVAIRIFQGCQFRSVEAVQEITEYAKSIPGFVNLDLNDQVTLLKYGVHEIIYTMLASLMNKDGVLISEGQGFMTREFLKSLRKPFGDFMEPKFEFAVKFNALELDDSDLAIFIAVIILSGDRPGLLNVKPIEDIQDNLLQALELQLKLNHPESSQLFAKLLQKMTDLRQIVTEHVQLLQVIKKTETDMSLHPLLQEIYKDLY

`C=C(C)C(=O)O[C@H]1CC2=C[C@H](C/C=C\[C@H]3OC(=O)C(=C)[C@H]13)OC2=O` [19a] gave an IC50 of 19 µM.
